Test results taken from patent US11104690B2, “Indazole derivatives useful as inhibitors of diacylglyceride O-acyltransferase 2” (Merck Sharp & Dohme Corp., priority 2016, dated 2021).

Target: Human DGAT2 (Homo sapiens (Human), UniProt Q96PD7)
Experiment: DGAT2 Enzymatic Activity Assay (triolein formation, LC/MS/MS)
Type: biochemical
Details: hDGAT2 Sf-9 membrane prep; 25 μM diolein, 10 μM oleoyl-CoA; room temperature
In short: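 Triolein product, measured by LC/MS/MS as a ratio to internal standard, gave % inhibition and 4-parameter IC50. Reaction: 25 μM diolein, 10 μM oleoyl-CoA, 10 ng/μL hDGAT2 Sf-9 membrane, 100 mM Tris.Cl pH 7.0, 20 mM MgCl2, 5% ethanol, room temperature.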

Chain of Human DGAT2 (Q96PD7 whole entry): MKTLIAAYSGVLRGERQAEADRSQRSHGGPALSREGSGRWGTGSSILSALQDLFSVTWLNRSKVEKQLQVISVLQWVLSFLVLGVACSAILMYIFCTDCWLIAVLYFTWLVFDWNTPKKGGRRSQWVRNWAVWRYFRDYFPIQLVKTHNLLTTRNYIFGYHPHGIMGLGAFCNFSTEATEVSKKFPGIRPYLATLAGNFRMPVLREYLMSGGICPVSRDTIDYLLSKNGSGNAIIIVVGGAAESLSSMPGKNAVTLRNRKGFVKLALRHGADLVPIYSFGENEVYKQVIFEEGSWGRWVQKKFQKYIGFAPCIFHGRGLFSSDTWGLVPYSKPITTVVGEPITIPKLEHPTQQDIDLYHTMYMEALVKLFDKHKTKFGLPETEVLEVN

| SMILES | IC50 |
| --- | --- |
| COc1cc(C#N)cc(-c2nn(-c3ccc(F)cc3)c3cc(C(=O)NC4(C)CCS(=O)(=O)C4)ccc23)c1F (single isomer, unassigned) [Example 161-B, 3-(5-cyano-2-fluoro-3-methoxyphenyl)-1-(4-fluorophenyl)-N-(3-methyl-1,1-dioxidotetrahydrothiophen-3-yl)-1H-indazole-6-carboxamide] | 28 nM |
| Cc1nnc(-c2cccc(-c3nn(-c4ccc(F)cc4)c4cc(C(=O)NC5(C)CCS(=O)(=O)C5)ccc34)c2)o1 (racemic) [Example 164, 1-(4-fluorophenyl)-N-(3-methyl-1,1-dioxidotetrahydrothiophen-3-yl)-3-[3-(5-methyl-1,3,4-oxadiazol-2-yl)phenyl]-1H-indazole-6-carboxamide] | 28 nM |
| O=C(NC1CCS(=O)(=O)C1)c1ccc2c(-c3ccccc3Cl)nn(Cc3ccccc3)c2c1 (racemic) [Example 167, (±)-1-Benzyl-3-(2-chlorophenyl-N-(1,1-dioxidotetrahydrothiophen-3-yl)-1-indazole-6-carboxamide] | 383 nM |
| CC(C)n1nc(-c2ccccc2Cl)c2ccc(C(=O)NC3CCS(=O)(=O)C3)cc21 (centres unmarked) [Example 169, 3-(2-chlorophenyl)-N-(1,1-dioxidotetrahydrothiophen-3-yl)-1-(1-methylethyl)-1H-indazole-6-carboxamide] | 364 nM |
| CC(Cc1ccccn1)NC(=O)c1ccc2c(-c3ccccc3Cl)nn(-c3ccc(F)cc3)c2c1 (racemic) [Example 112, 3-(2-chlorophenyl)-1-(4-fluorophenyl)-N-(1-methyl-2-pyridin-2-ylethyl)-1H-indazole-6-carboxamide] | 593 nM |
| COCCNC(=O)c1ccc2c(-c3ccccc3Cl)nn(-c3ccc(F)cc3)c2c1 [Example 45, 3-(2-chlorophenyl)-1-(4-fluorophenyl)-N-(2-methoxyethyl)-1H-indazole-6-carboxamide] | 424 nM |
| O=C(N[C@H](CO)c1ccc(C(F)(F)F)nc1)c1ccc2c(-c3ccccc3Cl)nn(-c3ccc(F)cc3)c2c1 [Example 5, 3-(2-chlorophenyl)-1-(4-fluorophenyl)-N-{(1S)-2-hydroxy-1-[6-(trifluoromethyl)pyridin-3-yl]ethyl}-1H-indazole-6-carboxamide] | 45 nM |
| COC(=O)C1(NC(=O)c2ccc3c(-c4ccccc4Cl)nn(-c4ccc(F)cc4)c3c2)CCS(=O)(=O)C1 (racemic) [Example 90, methyl 3-({[3-(2-chlorophenyl)-1-(4-fluorophenyl)-1H-indazol-6-yl]carbonyl}amino)tetra-hydrothiophene-3-carboxylate 1,1-dioxide] | 90 nM |
| O=C(NC1CCC(O)C1)c1ccc2c(-c3ccccc3Cl)nn(-c3ccc(F)cc3)c2c1 (racemic) [Example 83, 3-(2-chlorophenyl)-1-(4-fluorophenyl)-N-(3-hydroxycyclopentyl)-1H-indazole-6-carboxamide] | 276 nM |
| CO[C@@H]1C[C@H](NC(=O)c2ccc3c(-c4ccccc4Cl)nn(-c4ccc(F)cc4)c3c2)[C@H](O)[C@H](C)O1 [Example 111, 3-(2-chlorophenyl)-1-(4-fluorophenyl)-N-((2S,3S,4S,6S)-3-hydroxy-6-methoxy-2-methyltetrahydro-2H-pyran-4-yl)-1H-indazole-6-carboxamide] | 194 nM |
| CC(C)[C@H](NC(=O)c1ccc2c(-c3ccccc3Cl)nn(-c3ccc(F)cc3)c2c1)C(N)=O [Example 95, N-[(1S)-1-carbamoyl-2-methylpropyl]-3-(2-chlorophenyl)-1-(4-fluorophenyl)-1H-indazole-6-carboxamide] | 606 nM |
| O=C(NC1CCS(=O)(=O)C1)c1ccc2c(-c3ccccc3Cl)nn(-c3ccc(Cl)cn3)c2c1 (single isomer, unassigned) [Example 173-A, 3-(2-chlorophenyl)-1-(5-chloropyridin-2-yl)-N-(1,1-dioxidotetrahydrothiophen-3-yl)-1H-indazole-6-carboxamide] | 23 nM |
| O=C(N[C@@H](CO)c1ccc(C(F)(F)F)nc1)c1ccc2c(-c3ccccc3Cl)nn(-c3ccc(F)cc3)c2c1 [Example 30, 3-(2-chlorophenyl)-1-(4-fluorophenyl)-N-{(1R)-2-hydroxy-1-[6-(trifluoromethyl)pyridin-3-yl]ethyl}-1H-indazole-6-carboxamide] | 48 nM |
| C[C@H](CO)NC(=O)c1ccc2c(-c3ccccc3Cl)nn(-c3ccc(F)cc3)c2c1 [Example 79, 3-(2-chlorophenyl)-1-(4-fluorophenyl)-N-[(1R)-hydroxy-1-methylethyl]-1H-indazole-6-carboxamide] | 772 nM |
| N#Cc1ccc(Cl)c(-c2nn(-c3ccc(F)cn3)c3cc(C(=O)NC4CCS(=O)(=O)C4)ccc23)c1 (single isomer, unassigned) [Example 127-A, 3-(2-chloro-5-cyanophenyl)-N-(1,1-dioxidotetrahydrothiophen-3-yl)-1-(5-fluoropyridin-2-yl)-1H-indazole-6-carboxamide] | 8.2 nM |
| O=C(NC1CCS(=O)(=O)C1)c1ccc2c(-c3cccc(C4CC4)c3)nn(-c3ccc(F)cn3)c2c1 (single isomer, unassigned) [Example 126-A, 3-(3-cyclopropylphenyl)-N-(1,1-dioxidotetrahydrothiophen-3-yl)-1-(5-fluoropyridin-2-yl)-1H-indazole-6-carboxamide] | 11 nM |
| Cc1n[nH]c(C)c1C(C)NC(=O)c1ccc2c(-c3ccccc3Cl)nn(-c3ccc(F)cc3)c2c1 (racemic) [Example 17, 3-(2-chlorophenyl)-N-[1-(3,5-dimethyl-1H-pyrazol-4-yl)ethyl]-1-(4-fluorophenyl)-1H-indazole-6-carboxamide] | 83 nM |
| O=C(NC1COC1)c1ccc2c(-c3ccccc3Cl)nn(-c3ccc(F)cc3)c2c1 [Example 21, 3-(2-chlorophenyl)-1-(4-fluorophenyl)-N-oxetan-3-yl-1H-indazole-6-carboxamide] | 873 nM |
| O=C(N[C@H]1c2ccccc2OC[C@H]1O)c1ccc2c(-c3ccccc3Cl)nn(-c3ccc(F)cc3)c2c1 [Example 71, 3-(2-chlorophenyl)-1-(4-fluorophenyl)-N-[(3S,4S)-3-hydroxy-3,4-dihydro-2H-chromen-4-yl]-1H-indazole-6-carboxamide] | 526 nM |
| O=C(NC1CCS(=O)(=O)C1)c1ccc2c(-c3cncnc3)nn(-c3ccc(F)cc3)c2c1 (single isomer, unassigned) [Example 133-A, N-(1,1-dioxidotetrahydrothiophen-3-yl)-1-(4-fluorophenyl)-3-pyrimidin-5-yl-1H-indazole-6-carboxamide] | 846 nM |
| O=C(NC1(CO)CCC1)c1ccc2c(-c3ccccc3Cl)nn(-c3ccc(F)cc3)c2c1 [Example 88, 3-(2-chlorophenyl)-1-(4-fluorophenyl)-N-[1-(hydroxymethyl)cyclobutyl]-1H-indazole-6-carboxamide] | 15 nM |
| CC1(NC(=O)c2ccc3c(-c4cccc(C5CC5)c4)nn(-c4ccc(F)cn4)c3c2)CCS(=O)(=O)C1 (single isomer, unassigned) [Example 125-A, 3-(3-cyclopropylphenyl)-1-(5-fluoropyridin-2-yl)-N-(3-methyl-1,1-dioxidotetrahydrothiophen-3-yl)-1H-indazole-6-carboxamide] | 4.2 nM |
| CC(C)(C)[C@@H](CO)NC(=O)c1ccc2c(-c3ccccc3Cl)nn(-c3ccc(F)cc3)c2c1 [Example 99, 3-(2-chlorophenyl)-1-(4-fluorophenyl)-N-[(1S)-1-(hydroxymethyl)-2,2-dimethylpropyl]-1H-indazole-6-carboxamide] | 6.1 nM |
